Values belong to the molecule of their own block, whether it stands above or below them. Active and inactive are the calls of the source. The rule behind the calls is not given here.
Columns and labels:
[1] = Intrinsic clearance in rat microsome; format: ADME; conditions: microsomes
[2] = Intrinsic clearance in human microsome; format: ADME; conditions: microsomes
[3] = Ratio of drug level in brain against plasma in rat; format: ADME, organism-based; conditions: read-out: BPR
[4] = Oral bioavailability in rat; format: ADME, organism-based; conditions: in vivo
[5] = Clearance in rat; format: ADME, organism-based; conditions: in vivo
[6] = Volume of distribution in rat; format: ADME, organism-based; conditions: in vivo, read-out: Vss
[7] = Dissociation constant, pKa of the compound; format: physicochemical
[8] = target: T1, Sodium- and chloride-dependent glycine transporter 1 (Homo sapiens) (UniProt P48067); experiment: (§1) Inhibition of [3H]glycine uptake at human GlyT1 by radiometric assay
T1 sequence (whole entry): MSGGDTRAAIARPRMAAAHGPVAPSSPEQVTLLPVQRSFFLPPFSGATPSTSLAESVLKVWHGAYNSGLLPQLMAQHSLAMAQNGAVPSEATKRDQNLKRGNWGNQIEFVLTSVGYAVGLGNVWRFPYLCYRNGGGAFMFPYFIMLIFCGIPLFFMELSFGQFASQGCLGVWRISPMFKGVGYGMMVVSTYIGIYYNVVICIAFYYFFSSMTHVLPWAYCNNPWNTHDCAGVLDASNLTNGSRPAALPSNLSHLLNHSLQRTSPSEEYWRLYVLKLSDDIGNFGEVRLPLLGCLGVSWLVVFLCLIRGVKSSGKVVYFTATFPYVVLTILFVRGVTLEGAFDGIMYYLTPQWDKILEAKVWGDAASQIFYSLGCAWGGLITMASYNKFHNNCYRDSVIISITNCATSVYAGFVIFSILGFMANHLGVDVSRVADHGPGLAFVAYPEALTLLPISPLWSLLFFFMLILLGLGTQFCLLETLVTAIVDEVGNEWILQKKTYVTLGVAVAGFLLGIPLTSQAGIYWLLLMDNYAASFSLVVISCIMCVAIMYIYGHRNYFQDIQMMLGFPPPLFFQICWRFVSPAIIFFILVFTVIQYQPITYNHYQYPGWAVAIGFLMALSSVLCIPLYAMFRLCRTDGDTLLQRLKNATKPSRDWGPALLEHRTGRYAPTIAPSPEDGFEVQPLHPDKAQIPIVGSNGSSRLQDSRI

[9] = target: T2, Sodium- and chloride-dependent glycine transporter 2 (Homo sapiens) (UniProt Q9Y345); experiment: (§2) Inhibition of [3H]glycine uptake at human GlyT2 by radiometric assay
T2 sequence (whole entry): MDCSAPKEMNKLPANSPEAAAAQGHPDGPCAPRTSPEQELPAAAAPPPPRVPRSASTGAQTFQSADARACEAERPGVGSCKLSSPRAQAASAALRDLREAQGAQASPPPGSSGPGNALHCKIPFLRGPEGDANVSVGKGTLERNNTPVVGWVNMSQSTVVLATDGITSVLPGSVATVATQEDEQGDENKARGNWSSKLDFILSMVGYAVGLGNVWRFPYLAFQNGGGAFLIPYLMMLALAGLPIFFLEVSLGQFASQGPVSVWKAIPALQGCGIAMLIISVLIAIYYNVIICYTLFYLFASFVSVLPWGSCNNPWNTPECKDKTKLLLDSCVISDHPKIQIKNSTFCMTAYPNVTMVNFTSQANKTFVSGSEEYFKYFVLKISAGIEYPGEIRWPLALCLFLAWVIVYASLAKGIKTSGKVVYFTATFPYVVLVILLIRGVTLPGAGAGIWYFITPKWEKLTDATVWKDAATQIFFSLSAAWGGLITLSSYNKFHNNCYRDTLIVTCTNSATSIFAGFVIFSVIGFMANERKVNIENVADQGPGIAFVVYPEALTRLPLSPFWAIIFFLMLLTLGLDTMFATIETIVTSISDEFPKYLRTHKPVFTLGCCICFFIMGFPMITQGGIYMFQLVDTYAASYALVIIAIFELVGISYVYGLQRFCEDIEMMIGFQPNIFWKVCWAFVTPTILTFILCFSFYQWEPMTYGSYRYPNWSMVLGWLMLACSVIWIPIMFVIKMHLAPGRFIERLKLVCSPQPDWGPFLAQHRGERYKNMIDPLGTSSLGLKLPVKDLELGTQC

[10] = target: T3, Sodium- and chloride-dependent glycine transporter 1 (Homo sapiens, UniProt P48067); experiment: as §1
T3 sequence (P48067 whole entry): T1 sequence (whole entry)

[11] = Intrinsic clearance in mouse microsome; format: ADME; conditions: microsomes
[12] = target: Voltage-gated inwardly rectifying potassium channel KCNH2 (Homo sapiens, UniProt Q12809); experiment: Inhibition of hERG potassium channel expressed in CHO cells by whole cell patch clamp method; format: toxicity, cell-based
Chain of Voltage-gated inwardly rectifying potassium channel KCNH2 (Q12809 whole entry): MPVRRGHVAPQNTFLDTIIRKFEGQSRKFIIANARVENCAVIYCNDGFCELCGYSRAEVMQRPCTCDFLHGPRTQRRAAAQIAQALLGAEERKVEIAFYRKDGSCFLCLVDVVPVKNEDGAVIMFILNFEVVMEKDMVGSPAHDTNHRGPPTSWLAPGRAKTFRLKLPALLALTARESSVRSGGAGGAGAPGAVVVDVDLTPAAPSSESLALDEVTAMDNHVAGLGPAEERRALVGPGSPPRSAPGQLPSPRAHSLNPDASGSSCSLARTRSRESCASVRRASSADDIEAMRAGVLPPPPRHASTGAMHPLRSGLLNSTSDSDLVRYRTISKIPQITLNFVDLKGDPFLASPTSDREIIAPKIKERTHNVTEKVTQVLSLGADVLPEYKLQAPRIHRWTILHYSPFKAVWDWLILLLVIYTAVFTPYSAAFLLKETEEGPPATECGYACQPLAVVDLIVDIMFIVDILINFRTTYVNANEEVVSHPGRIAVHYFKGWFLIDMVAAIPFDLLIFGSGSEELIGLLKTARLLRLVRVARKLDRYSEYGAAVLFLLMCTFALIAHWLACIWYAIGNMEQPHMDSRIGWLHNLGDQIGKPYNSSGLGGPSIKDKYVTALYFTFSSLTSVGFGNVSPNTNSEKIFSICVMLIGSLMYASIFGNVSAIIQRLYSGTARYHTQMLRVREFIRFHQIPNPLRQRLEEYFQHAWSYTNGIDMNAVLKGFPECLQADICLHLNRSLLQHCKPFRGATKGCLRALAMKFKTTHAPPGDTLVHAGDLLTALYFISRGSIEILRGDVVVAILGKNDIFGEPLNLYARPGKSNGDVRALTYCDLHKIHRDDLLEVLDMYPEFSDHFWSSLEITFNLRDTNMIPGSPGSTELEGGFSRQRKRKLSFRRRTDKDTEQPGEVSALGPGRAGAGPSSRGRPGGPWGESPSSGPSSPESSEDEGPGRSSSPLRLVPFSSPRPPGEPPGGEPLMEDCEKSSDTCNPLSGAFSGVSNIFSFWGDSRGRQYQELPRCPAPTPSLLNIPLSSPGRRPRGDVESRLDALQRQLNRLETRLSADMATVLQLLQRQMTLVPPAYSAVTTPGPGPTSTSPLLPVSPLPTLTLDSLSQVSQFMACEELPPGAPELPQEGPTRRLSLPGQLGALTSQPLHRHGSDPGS

[13] = target: T4, Sodium- and chloride-dependent glycine transporter 2 (Homo sapiens, UniProt Q9Y345); experiment: as §2
T4 sequence (Q9Y345 whole entry): T2 sequence (whole entry)

[14] = target: Nociceptin receptor (Homo sapiens, UniProt P41146); experiment: Displacement of [3H]NOP from human NOP receptors expressed in HEK293 cells; format: cell-based; conditions: hek293
Chain of Nociceptin receptor (P41146 whole entry): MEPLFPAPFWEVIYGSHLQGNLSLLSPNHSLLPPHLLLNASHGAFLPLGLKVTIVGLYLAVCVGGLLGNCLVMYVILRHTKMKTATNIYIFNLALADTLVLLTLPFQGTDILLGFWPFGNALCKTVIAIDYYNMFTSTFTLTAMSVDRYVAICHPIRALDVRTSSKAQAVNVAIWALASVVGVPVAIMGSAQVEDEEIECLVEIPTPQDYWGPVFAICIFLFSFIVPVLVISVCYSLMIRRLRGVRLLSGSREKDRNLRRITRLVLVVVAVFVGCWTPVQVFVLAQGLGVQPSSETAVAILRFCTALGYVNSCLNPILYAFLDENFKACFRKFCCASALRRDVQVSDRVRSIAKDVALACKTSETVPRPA

[15] = Oral bioavailability in mouse; format: ADME, organism-based; conditions: in vivo
[16] = Clearance in mouse; format: ADME, organism-based; conditions: in vivo
[17] = Volume of distribution in mouse; format: ADME, organism-based; conditions: in vivo, read-out: Vss

Structure (SMILES): O=C1NCN(c2ccccc2)C12CCN(C1CCCCC1c1ccccc1)CC2 (stereo not given)
microsomal CLint [1]: 240 µL/min/mg
microsomal CLint [2]: 68 µL/min/mg
Kp [3]: 1.6
bioavailability [4]: 8%
clearance [5]: 7.2 L/h/kg
Vd [6]: 7.3 L/kg

pKa [7]: 6.89
Activity [8]: 91 nM
Activity [9]: inactive
Structure (SMILES): O=C1NCC(c2ccc(F)cc2)C12CCN(C1CCCCC1(O)c1ccccc1)CC2 (stereo not given)

Structure (SMILES): O=C1NCN(c2ccccc2)C12CCN(C1CCCCC1(O)c1ccc(F)cc1)CC2 (stereo not given)
microsomal CLint [1]: 499 µL/min/mg
microsomal CLint [2]: 78 µL/min/mg
EC50 [10]: 0.024 µM

Structure (SMILES): O=C1NCC(c2ccccc2)C12CCN(C1CCCCC1(O)c1ccc(F)cc1)CC2 (single isomer, unassigned; diastereomer 1)
microsomal CLint [11]: 13 µL/min/mg
microsomal CLint [2]: 44 µL/min/mg
IC50 [12]: 1.8 µM
pKa [7]: 8.54
EC50 [10]: 0.07 µM
EC50 [13]: > 30 µM
IC50 [14]: > 10 µM

Structure (SMILES): O=C1NC[C@@H](c2ccccc2)C12CCN(C1CCCCC1c1ccccc1)CC2 (stereo in doubt; 27)
microsomal CLint [11]: 36 µL/min/mg
microsomal CLint [2]: 23 µL/min/mg
Kp [3]: 5.2
clearance [5]: 3.78 L/h/kg
Vd [6]: 4.3 L/kg
bioavailability [15]: 27%
clearance [16]: 5.94 L/h/kg
Vd [17]: 8.9 L/kg
IC50 [12]: 1.4 µM
pKa [7]: 8.85
EC50 [10]: 0.061 µM

Source: ChEMBL document CHEMBL1138974 (Bioorg Med Chem Lett, 2006)
